Among the data in BindingDB's records for patent US11339122 (University of Pittsburgh, 2022) are Ki values, retold here.

Structures are written as SMILES.

This test concerns the target Transient receptor potential cation channel subfamily V member 1 (Homo sapiens, UniProt Q8NER1). Briefly: RTX Competition Binding Assay. The procedure:
Binding studies with [3H]RTX were carried out as follows. The binding assay mixtures were prepared in 1.5 ml centrifuge tubes and consisted of a fixed concentration (approximately 2 nM) of [3H]RTX (37 Ci/mmol specific activity, PerkinElmer Life Sciences), various concentrations of competing ligands, and […] of membranes from induced CHO-hTRPV1 expressing cells (approximately 1-3×10^6 cells) in Dulbecco's phosphate buffered saline (DPBS, with Ca2+ & Mg2+) for a total volume of 350 μl. The assay mix contained bovine serum albumin at a final concentration of 0.25 mg/ml (Cohn fraction V; Sigma-Aldrich, St. Louis, Mo.). In each set of experiments, nonspecific binding were determined in the presence of 200 nM non-radioactive RTX. The binding reaction was initiated by placing the assay mixture in a 37° C. shaking water bath for 60 minutes ([…]). The assay mixture was then chilled on ice for 2-3 min before adding 100 μl of α1-acid glycoprotein (2 mg/ml; Sigma-Aldrich) and mixed thoroughly. The tubes were kept on ice for an additional 10 min. The bound and free ligands were then separated by centrifugation (12,200 rpm for 15 minutes) in a Beckman Coulter centrifuge Allegra 21R. 200 μl of supernatant was collected for determination of free ligand. The remainder was removed by aspiration.

Chain of Transient receptor potential cation channel subfamily V member 1 (Q8NER1 whole entry): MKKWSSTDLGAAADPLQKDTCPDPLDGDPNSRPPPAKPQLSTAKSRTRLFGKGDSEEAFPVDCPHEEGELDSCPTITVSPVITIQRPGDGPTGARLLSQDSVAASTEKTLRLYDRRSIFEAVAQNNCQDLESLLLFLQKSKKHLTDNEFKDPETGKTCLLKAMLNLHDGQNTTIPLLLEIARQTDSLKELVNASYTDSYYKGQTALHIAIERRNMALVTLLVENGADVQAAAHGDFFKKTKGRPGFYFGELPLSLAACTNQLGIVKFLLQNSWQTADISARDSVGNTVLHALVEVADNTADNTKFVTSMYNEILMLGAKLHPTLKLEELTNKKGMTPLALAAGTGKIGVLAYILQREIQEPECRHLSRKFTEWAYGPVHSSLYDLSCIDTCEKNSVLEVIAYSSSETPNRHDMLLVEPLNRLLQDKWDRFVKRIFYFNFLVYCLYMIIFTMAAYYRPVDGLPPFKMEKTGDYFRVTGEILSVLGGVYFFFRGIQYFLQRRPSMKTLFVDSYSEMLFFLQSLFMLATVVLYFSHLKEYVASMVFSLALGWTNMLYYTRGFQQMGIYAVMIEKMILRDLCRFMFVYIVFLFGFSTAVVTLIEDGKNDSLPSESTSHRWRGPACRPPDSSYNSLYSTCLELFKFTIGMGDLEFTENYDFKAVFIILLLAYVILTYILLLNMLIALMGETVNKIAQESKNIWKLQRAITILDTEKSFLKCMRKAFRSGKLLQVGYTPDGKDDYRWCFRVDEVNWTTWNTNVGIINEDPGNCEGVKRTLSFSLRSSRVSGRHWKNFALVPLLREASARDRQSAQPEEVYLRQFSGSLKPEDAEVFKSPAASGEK

As usually defined, the Ki is the dissociation constant of the complex between target and ligand, obtained from inhibition or displacement. As to `CCOC(=O)c1ccc(NC(=O)Nc2ccc(F)cc2)cc1` [US11339122, Compound 5b], the inhibitory constant (Ki) came out at 2840 nM.
